# Measurements: patent publication US20230025880A1, “FUSED TRICYCLIC COMPOUND AND MEDICINAL USE THEREOF” (JAPAN TOBACCO INC., priority 2020, published 2023)
# Target: T1, human PDHK2 (hPDHK2) (Homo sapiens, UniProt Q15119)
# T1 construct: made in house; host or cells: Escherichia coli BL21(DE3), pET-17b vector
# Experiment: Inhibitory action of PDHK2 activity (residual PDH activity, NADH absorbance at 340 nm)
# Type: biochemical
# Conditions: PDH/hPDHK2 complex, PDHK reaction 45 min at room temperature
# Method: In the case of human PDHK2 (hPDHK2, NCBI Reference Database Accession number NM_002611.4), modified hPDHK2 cDNA wherein FLAG-Tag sequence was added to the N terminus of hPDHK2 cDNA clone (pReceiver-M01/PDK2-GeneCopoeia) as the base was prepared by polymerase chain reaction (PCR) and ligated to the NdeI/EcoRI site of pET-17b vector (Merck KGaA, Catalog Number 69663-3). The recombinant construct was transformed into Escherichia coli DH5α. The recombinant clones were identified, and plasmid DNA was isolated and subjected to the DNA sequence analysis. One clone which had the expected nucleic acid sequence was selected for expression work.
# For expression of hPDHK2 activity, Escherichia coli strain BL21(DE3) cells (Merck KGaA, Catalog Number 69450-4) were transformed with the pET17b vector containing modified hPDHK2 cDNA. The Escherichia coli were grown to an optical density 0.6 ([…]) at 30° C. Protein expression was induced by the addition of 500 μmol/L isopropyl-β-thiogalactopyranoside. The Escherichia coli were cultured at 20° C. for 17-18 hr and harvested by centrifugation. The harvested Escherichia coli was resuspended in a suspension buffer (20 mmol/L HEPES-NaOH, 500 mmol/L sodium chloride, 1% ethylene glycol, 0.1% Pluronic (registered trademark) F-68 (pH 8.0), cOmplete, EDTA-free (Roche) (pH 8.0)), and disrupted by a microfluidizer M-110H (MIZUHO INDUSTRIAL CO., LTD.). The precipitate was removed by centrifugation and the supernatant was added to DDDDK-tagged Protein PURIFICATION GEL (MEDICAL & BIOLOGICAL LABORATORIES CO., LTD., Code No. 3329). DDDDK-tagged Protein PURIFICATION GEL was washed with a washing buffer (20 mmol/L HEPES-NaOH, 500 mmol/L sodium chloride, 1% ethylene glycol, 0.1% Pluronic F-68 (pH 8.0)) and the bound protein was eluted with elution buffer 1 (20 mmol/L HEPES-NaOH, 100 μg/mL peptide (amino acid sequence DYKDDDDK) (SEQ ID NO: 1), 500 mmol/L sodium chloride, 1% ethylene glycol, 0.1% Pluronic F-68 (pH 8.0)). The eluted fractions containing FLAG-Tagged protein were pooled, concentrated by an ultrafiltration method, added to a gel filtration column (HiLoad 26/60 Superdex 200 (GE Healthcare Life Sciences, Code No. 17-1070-01)), and eluted with elution buffer 2 (20 mmol/L HEPES-NaOH, 150 mmol/L sodium chloride, 0.5 mmol/L ethylenediaminetetraacetic acid (EDTA), 1% ethylene glycol, 0.1% Pluronic F-68 (pH 8.0)). The eluted fractions were pooled and preserved at −80° C.
# PDH (porcine heart PDH complex, Sigma P7032) and 0.5 μg/mL hPDHK2 were mixed in an assay buffer (50 mmol/L 3-morpholinopropanesulfonic acid (pH 7.0), 20 mmol/L dipotassium hydrogen phosphate, 60 mmol/L potassium chloride, 2 mmol/L magnesium chloride, 0.4 mmol/L EDTA, 0.2% poloxamer, 2 mmol/L dithiothreitol) so that the final concentration of PDH was 0.025 U/mL, and the mixture was incubated at 4° C. overnight to obtain a PDH/hPDHK2 complex solution.
# PDH was mixed with the assay buffer so that the final concentration was 0.025 U/mL, and the mixture was incubated at 4° C. overnight to prepare a PDH solution.
# The test compounds were diluted with DMSO. To measure an inhibitory action of the test compound on the PDHK activity in the PDH/hPDHK2 complex solution, PDH/hPDHK2 complex solution (20 μL), test compound (1.5 μL) and 1.06 μmol/L ATP (diluted with assay buffer) (8.5 μL) were added to a 384 well microplate (Greiner Bio-One 781801) and PDHK reaction was performed at room temperature for 45 min (test compound well). DMSO (1.5 μL) was added to control wells instead of test compound. In addition, DMSO (1.5 μL) was added to blank wells instead of the test compound, and PDH solution was added instead of the PDH/hPDHK2 complex solution. To measure an inhibitory action of the test compound on the PDHK activity inherent in the PDH solution, a test compound was added and the PDH solution instead of the PDH/hPDHK2 complex solution was added to a blank+test compound well. […]
row,Compound,IC50 [µM]
1,C[C@H]1Cn2nc(OCC3(CC#N)CC3)cc2-c2cnc([C@@](C)(O)C(F)(F)F)n21 [Example 57],0.022
2,CC(=O)N1CCC(Oc2cc3n(n2)C[C@H](C)n2c-3cnc2[C@@](C)(O)C(F)(F)F)CC1 [Example 71],0.026
3,C[C@H]1Cn2c(nnc2C2(c3ccc(F)cc3)CC2)-c2cnc([C@@](C)(O)C(F)(F)F)n21 [Example 81],0.0073
4,CCC(F)(F)c1nnc2n1C[C@H](C)n1c-2cnc1[C@@](C)(O)C(F)(F)F [Example 59],0.01
5,"C[C@H]1Cc2c(C(F)(F)F)n[nH]c2-c2cnc([C@@](C)(O)C(F)(F)F)n21 (racemic) [Example 50, 1,1,1-trifluoro-2-(5-methyl-3-(trifluoromethyl)-4,5-dihydro-1H-imidazo[1,5-a]pyrazolo[3,4-c]pyridin-7-yl)propan-2-ol]",0.027
6,C[C@H]1Cn2nc(OC3CCOCC3)cc2-c2cnc([C@@](C)(O)C(F)(F)F)n21 [Example 77],0.017
7,C[C@H]1Cn2nc(OCC(C)(C)C#N)cc2-c2cnc([C@@](C)(O)C(F)(F)F)n21 [Example 79],0.015
8,C[C@H]1Cn2nc(OCC3CCS(=O)(=O)CC3)cc2-c2cnc([C@@](C)(O)C(F)(F)F)n21 [Example 82],0.023
9,"C[C@H]1Cc2c(noc2C2CC2)-c2cnc([C@@](C)(O)C(F)(F)F)n21 (racemic) [Example 35, 2-(3-cyclopropyl-5-methyl-4,5-dihydroimidazo[1,5-a]isoxazolo[3,4-c]pyridin-7-yl)-1,1,1-trifluoropropan-2-ol]",0.019
10,C[C@H]1Cn2c(nnc2C(C)(C)C(F)(F)F)-c2cnc([C@@](C)(O)C(F)(F)F)n21 [Example 39],0.0081
11,C[C@H]1Cn2c(nnc2C2(C)CC2)-c2cnc([C@@](C)(O)C(F)(F)F)n21 [Example 17],0.0073
12,C[C@H]1Cn2nc(C(F)F)cc2-c2cnc([C@@](C)(O)C(F)(F)F)n21 [Example 29],0.038
13,C[C@H]1Cn2nc(C(=O)N3CC(F)(F)C3)cc2-c2cnc([C@@](C)(O)C(F)(F)F)n21 [Example 38],0.014
14,C[C@H]1Cn2nc(CO)cc2-c2cnc([C@@](C)(O)C(F)(F)F)n21 [Example 36],0.019
15,C[C@H]1Cn2nc(OCC3CC4CCC(C3)S4(=O)=O)cc2-c2cnc([C@@](C)(O)C(F)(F)F)n21 (stereo partly drawn) [Example 83],0.016
16,C[C@H]1Cn2nc(C=O)cc2-c2cnc([C@@](C)(O)C(F)(F)F)n21 [Example 37],0.021
17,C[C@H]1Cn2c(nnc2C2CC2)-c2cnc([C@@](C)(O)C(F)(F)F)n21 [Example 14],0.0063
18,C[C@H]1Cn2nc(C(C)(O)C(F)(F)F)cc2-c2cnc([C@@](C)(O)C(F)(F)F)n21 (mixture of isomers) [Example 26],0.031
19,"C[C@H]1Cc2ccccc2-c2cnc([C@@](C)(O)C(F)(F)F)n21 (racemic) [Example 1, 1,1,1-trifluoro-2-(5-methyl-5,6-dihydroimidazo[5,1-a]isoquinolin-3-yl)propan-2-ol]",0.016
20,C[C@H]1Cn2c(nnc2C2(F)CC2)-c2cnc([C@@](C)(O)C(F)(F)F)n21 [Example 99],0.0085
21,C[C@H]1Cn2c(C(F)(F)F)cnc2-c2cnc([C@@](C)(O)C(F)(F)F)n21 [Example 18],0.0065
22,C[C@H]1Cn2c(nnc2C(C)(C)F)-c2cnc([C@@](C)(O)C(F)(F)F)n21 [Example 91],0.011
23,C[C@H]1Cn2nc(C(=O)N(C)C)cc2-c2cnc([C@@](C)(O)C(F)(F)F)n21 [Example 22],0.012
24,C[C@H]1Cn2nc(O)cc2-c2cnc([C@@](C)(O)C(F)(F)F)n21 [Example 28],0.022
25,CC(=O)N1CCC(c2cc3n(n2)C[C@H](C)n2c-3cnc2[C@@](C)(O)C(F)(F)F)CC1 [Example 75],0.019
26,C[C@H]1Cn2nc(OC(C)(C)C(C)(C)O)cc2-c2cnc([C@@](C)(O)C(F)(F)F)n21 [Example 80],0.013
27,C[C@H]1Cn2nc(Oc3ccc(C#N)cn3)cc2-c2cnc([C@@](C)(O)C(F)(F)F)n21 [Example 47],0.02
